# PubChem BioAssay AID623941 (Vanderbilt Specialized Chemistry Center, 2012)
# The source made the active and inactive calls.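 Rule for the calls: active = response rises or falls steadily with concentration, forming a dose-response curve as judged by the submitting lab; inactive = the rest.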
# Target: Muscarinic acetylcholine receptor M2 (Rattus norvegicus) (UniProt P10980)
# Assay: off-target potentiation of rat M2 ACh response – CHO cells, Gqi5 chimera, calcium, ACh EC20, selectivity assay for M4 PAM optimization project, SAR follow-up (AID 623941)
# Conditions: CHO rM2/Gqi5 calcium fluorescence
# Chain of Muscarinic acetylcholine receptor M2 (Rattus norvegicus) (P10980 whole entry, looked up): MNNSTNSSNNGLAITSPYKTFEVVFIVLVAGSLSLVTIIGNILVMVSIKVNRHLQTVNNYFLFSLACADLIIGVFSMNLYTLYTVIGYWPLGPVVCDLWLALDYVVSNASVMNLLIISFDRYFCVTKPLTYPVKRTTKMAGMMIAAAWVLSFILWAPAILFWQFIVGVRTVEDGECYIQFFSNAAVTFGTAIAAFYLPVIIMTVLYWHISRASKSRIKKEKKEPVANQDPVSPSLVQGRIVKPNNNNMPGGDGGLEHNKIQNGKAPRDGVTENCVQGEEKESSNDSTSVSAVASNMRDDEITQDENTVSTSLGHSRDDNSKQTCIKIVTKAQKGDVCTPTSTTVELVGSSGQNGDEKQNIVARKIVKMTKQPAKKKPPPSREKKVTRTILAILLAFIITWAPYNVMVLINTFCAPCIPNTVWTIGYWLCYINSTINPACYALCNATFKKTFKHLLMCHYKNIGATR
SMILES,outcome,EC50 [nM]
Cc1nc2sc(C(=O)NCc3ccccc3)c(N)c2c(C)c1Cl,inactive,–
Cc1nc2sc(C(=O)NCc3ccc4c(c3)OCO4)c(N)c2c(C)c1Cl,inactive,–
Cc1nc2sc(C(=O)NCc3cccnc3)c(N)c2c(C)c1Cl,inactive,–
Cc1nc2sc(C(=O)NC3CC3)c(N)c2c(C)c1Cl,–,640
Cc1nc2sc(C(=O)NCc3ccncc3)c(N)c2c(C)c1Cl,inactive,–

# Same assay, conditions: CHO rM2/Gqi5 calcium fluorescence, at 30 µM (top of the series)
row,SMILES,% ACh max response
1,Cc1nc2sc(C(=O)NCc3nccs3)c(N)c2c(C)c1Cl,inactive
2,Cc1nc2sc(C(=O)NCc3ccncn3)c(N)c2c(C)c1Cl,inactive
3,Cc1nc2sc(C(=O)NCCc3ccncc3)c(N)c2c(C)c1Cl,inactive
4,Cc1nc2sc(C(=O)NCc3cccc(F)c3F)c(N)c2c(C)c1Cl,inactive
5,COc1ccc(C)c2sc(NC(=O)c3ccncc3)nc12,inactive
